Experimental data: PMC4971072, “Chemically Homogenous Compounds with Antagonistic Properties at All α1-Adrenoceptor Subtypes but not β1-Adrenoceptor Attenuate Adrenaline-Induced Arrhythmia in Rats” (Frontiers in Pharmacology, 2016)
Read-outs that look alike come from different tables or passages of the source. Marks after values point to notes of the source that are not given here.

Tests used:
α1A-adrenoceptors = target: T1, α1A-adrenoceptors (Rattus norvegicus, UniProt P43140); details: rat tail artery, cited from earlier work
T1 construct: the middle part of the ventral caudal artery was removed; from tissue; host or cells: isolated rat tail (ventral caudal) artery rings
T1 sequence (P43140 1-466): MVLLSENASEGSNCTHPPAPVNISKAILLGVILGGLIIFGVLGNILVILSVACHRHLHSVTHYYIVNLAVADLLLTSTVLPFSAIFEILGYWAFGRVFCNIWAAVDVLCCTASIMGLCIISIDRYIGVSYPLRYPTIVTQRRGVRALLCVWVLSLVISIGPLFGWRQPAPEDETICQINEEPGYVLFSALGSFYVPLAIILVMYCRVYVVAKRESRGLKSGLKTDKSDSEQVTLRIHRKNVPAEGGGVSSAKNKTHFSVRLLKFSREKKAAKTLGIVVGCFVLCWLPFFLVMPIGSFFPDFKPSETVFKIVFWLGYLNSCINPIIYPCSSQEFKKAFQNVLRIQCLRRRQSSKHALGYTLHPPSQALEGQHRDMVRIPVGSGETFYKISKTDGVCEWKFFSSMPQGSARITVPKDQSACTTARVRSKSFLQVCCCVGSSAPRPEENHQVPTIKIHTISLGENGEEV

α1B-adrenoceptors = target: T2, α1B-adrenoceptors (Mus musculus, UniProt P97717); details: mouse spleen, cited from earlier work
T2 construct: The spleen was removed from male mice; from tissue; host or cells: isolated mouse spleen
T2 sequence (P97717 1-514): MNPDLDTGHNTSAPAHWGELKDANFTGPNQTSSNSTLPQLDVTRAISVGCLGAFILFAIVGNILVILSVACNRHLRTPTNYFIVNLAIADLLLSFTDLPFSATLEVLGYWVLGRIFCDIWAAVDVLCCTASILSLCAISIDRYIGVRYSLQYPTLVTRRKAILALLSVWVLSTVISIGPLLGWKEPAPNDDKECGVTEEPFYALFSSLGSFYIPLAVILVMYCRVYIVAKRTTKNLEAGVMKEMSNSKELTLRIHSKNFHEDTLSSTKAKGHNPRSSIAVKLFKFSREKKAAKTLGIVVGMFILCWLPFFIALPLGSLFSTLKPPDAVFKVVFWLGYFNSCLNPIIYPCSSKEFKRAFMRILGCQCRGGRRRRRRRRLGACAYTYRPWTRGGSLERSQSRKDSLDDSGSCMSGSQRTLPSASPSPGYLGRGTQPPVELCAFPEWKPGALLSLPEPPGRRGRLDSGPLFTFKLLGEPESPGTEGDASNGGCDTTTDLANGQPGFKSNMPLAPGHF

α1D-adrenoreceptors = target: T3, α1D-adrenoreceptors (Rattus norvegicus, UniProt P23944); details: rat aorta; ref Eltze (1996); cited from earlier work
T3 sequence (P23944 1-561): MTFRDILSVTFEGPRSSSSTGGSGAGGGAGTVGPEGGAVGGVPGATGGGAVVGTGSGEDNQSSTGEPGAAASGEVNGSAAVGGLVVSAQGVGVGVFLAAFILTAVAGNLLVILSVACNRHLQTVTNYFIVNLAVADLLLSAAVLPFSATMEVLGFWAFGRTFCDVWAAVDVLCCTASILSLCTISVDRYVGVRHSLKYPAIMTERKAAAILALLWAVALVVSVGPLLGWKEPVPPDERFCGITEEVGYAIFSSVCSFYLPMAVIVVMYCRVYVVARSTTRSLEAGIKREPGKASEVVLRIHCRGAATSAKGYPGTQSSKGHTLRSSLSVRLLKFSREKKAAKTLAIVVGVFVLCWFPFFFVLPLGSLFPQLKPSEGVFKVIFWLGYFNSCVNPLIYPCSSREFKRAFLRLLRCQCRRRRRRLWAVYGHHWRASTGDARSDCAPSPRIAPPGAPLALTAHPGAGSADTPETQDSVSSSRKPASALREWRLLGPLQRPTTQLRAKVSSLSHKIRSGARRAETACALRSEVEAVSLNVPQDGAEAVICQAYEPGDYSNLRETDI

[1] = tested on: adrenaline-induced arrhythmia in rats; test: Prophylactic antiarrhythmic activity in adrenaline-induced arrhythmia; type: in vivo, rat
Method: The studied compounds were administered i.p. 45 min before the injection of adrenaline, calcium chloride, or barium chloride. The electrocardiogram (ECG) was recorded during the first 2 min as well as in the 5th, 10th, and 15th min after the arrhythmogen injection. […]

α1B−adrenoceptor = tested on: α1B−adrenoceptor; set-up: method as in Koshimizu et al. (2004); details: ref Koshimizu et al. (2004); cited from earlier work
[2] = tested on: lipid peroxidation in rat brain homogenate; test: Lipid peroxidation in rat brain homogenate (TBARS), antioxidant effect; type: biochemical; details: 10^−3 M
Method: The rat brain homogenate containing 10 mg tissue/ml was prepared in 0.9% saline. The rates of membrane lipid peroxidation were measured by the formation of thiobarbituric acid reactive substances (TBARS). Rat brain homogenates (1 ml) were incubated at 37°C for 5 min with 10 μl of a tested compound or vehicle. Lipid peroxidation was initiated by the addition of 50 μl of 0.5 mM FeCl2 and 50 μl of 2.0 mM ascorbic acid. After 30 min of incubation, the reaction was stopped by adding 0.1 ml of 0.2% butylated hydroxytoluene (BHT). Thiobarbituric acid reagent was then added and the mixture was heated for 15 min in a boiling water bath.

α1-adrenoceptor [3] = details: ref Pönicke et al. (2002); read-out: Adrenergic receptors Ki α1; cited from earlier work
α1A−adrenoceptor subtype = tested on: α1A−adrenoceptor subtype; set-up: method as in Koshimizu et al. (2004); details: ref Koshimizu et al. (2004); cited from earlier work
α1-adrenoceptor [4] = test: α1-adrenoceptor radioligand binding assay ([3H]-prazosin, rat cerebral cortex); details: read-out: Adrenergic receptors Ki α1
Method: The α1- and β1-adrenoceptor radioligand binding assay was performed on rat cerebral cortex. […] The cell pellet was resuspended in the Tris–HCl buffer and centrifuged again. Radioligand binding assays were performed in plates (MultiScreen/Millipore). […] The incubation was terminated by rapid filtration through glass fiber filters (Whatman GF/C) using a vacuum manifold (Millipore). The filters were then washed twice with the assay buffer and placed in scintillation vials with a liquid scintillation cocktail. […] All the assays were made in duplicate and the inhibitory constants (Ki) were estimated.
LO–labeled ligand concentration, KD–dissociation constant of labeled ligand

[5] = adrenaline 20 μg/kg i.v. alone (arrhythmia control)

SMILES: COc1cc2nc(N3CCN(C(=O)c4ccco4)CC3)nc(N)c2cc1OC [Prazosin, prazosin]
- pA2 ± S.E.M., α1A (α1A-adrenoceptors; ref Parés-Hipólito et al. (2006)): 8.93 ± 0.03^a
- pA2 ± S.E.M., α1B (α1B-adrenoceptors; ref Eltze (1996)): 9.07 ± 0.09^b
- pA2 ± S.E.M., α1D (α1D-adrenoreceptors): 8.85 ± 0.09^b

SMILES: CNC[C@H](O)c1ccc(O)c(O)c1 [Adrenaline, adrenaline]
- Bigeminy (%) [1, 5]: 33.3%
- Blocks (%) [1, 5]: 50.0%
- Bradycardia (%) [1, 5]: 66.7%

SMILES: CCOc1ccccc1OCCN[C@H](C)Cc1ccc(OC)c(S(N)(=O)=O)c1 [Tamsulosin]
- pA2 ± S.E.M., α1A (α1A-adrenoceptors; ref Jähnichen et al. (2004)): 10.32 ± 0.05^c
- pA2 ± S.E.M., α1B (α1B-adrenoceptors; ref Eltze et al. (1999)): 8.33 ± 0.08^d

SMILES: COc1ccccc1OCCNCC(O)COc1cccc2[nH]c3ccccc3c12 (stereo not shown) [Carvedilol, carvedilol, reference compound]
- pA2 value for α1B−adrenoceptor (α1B−adrenoceptor): 10.0
- ED50 ([1]; Rattus norvegicus, read-out: ED50 (confidence limits)): 0.36 mg/kg
- inhibition of lipid peroxidation (in words) [2]: inhibited lipid peroxidation
- % reduction of absorbance (% antioxidant activity) ([2]; TBARs at 532 nm): 89.58%
- Absorbance ([2]; TBARs at 532 nm): 0.094 ± 0.002
- pA2 value for α1A−adrenoceptor subtype (α1A−adrenoceptor subtype): 9.0

SMILES: Cc1ccc(N(CC2=NCCN2)c2cccc(O)c2)cc1 [Phentolamine, phentolamine, reference compound]
- Ki (α1-adrenoceptor [4]): 18.3 nM
